Measured values published in US20240092745A1, “DRUGS AND COMPOSITIONS FOR THE TREATMENT OF OCULAR DISORDERS” (Graybug Vision, Inc., priority 2017, published 2024).
Values after ≈ are worked out from the molar mass of the structure shown. Structures can show the parent of a compound that is named as a salt. Where two headings read alike, the source gives them in different places.

Experiment: Determination of drug solubility in aqueous and organic solvent;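 also: solid drug suspended at 50 mg/mL nominal in each solvent, vortexed and sonicated, then dissolved concentration in filtered supernatant quantified by HPLC against a calibration curve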
Type: physicochemical
Conditions: for solubility: thermodynamic from solid
[1] = organic solvent or mixture, Table 3A, DMSO, read-out: Solubility DMSO
[2] = Table 3A, water, drug added to 50 mg/mL, read-out: Solubility Water
[3] = organic solvent or mixture, Table 3B, DMSO, read-out: Solubility DMSO
[4] = Table 3B, water, drug added to 50 mg/mL, read-out: Solubility Water
[5] = Table 3B, water, drug added to 50 mg/mL
[6] = organic solvent or mixture, Table 3A, DCM, read-out: Solubility DCM
[7] = Table 3A, water, drug added to 50 mg/mL

Method: For each test, approximately 5-10 mg was transferred to a 10 mL glass vial. Aqueous or organic solvent was added to each vial to achieve an overall concentration of 50 mg/mL. After vortexing aggressively for 2-3 minutes and sonicating in a bath sonicator for 5 minutes, undissolved drug was spun down at 1200 rpm for 5 minutes to generate a pellet. The supernatant was collected and filtered through a 0.2 μm nylon syringe filter into HPLC vials for drug content analysis. Drug concentration was determined by comparing against a standard calibration curve.

Compound	solubility [1] [mg/mL]	solubility [2] [mg/mL]	solubility [3] [mg/mL]	solubility [4] [mg/mL]	further results
CCN(CC)CCNC(=O)c1c(C)[nH]c(/C=C2\C(=O)Nc3ccc(N)cc32)c1C [5-Amino Sunitinib, 5-[5-Amino-2-oxo-1,2-dihydro-indol-(3Z)-ylidenemethyl]-2,4-dimethyl-1H-pyrrole-3-carboxylic acid (2-diethylamino-ethyl)-amide, reference compound]	> 50	< 1			
CC(=O)OC(C)C(=O)OC(C)C(=O)OC(C)C(=O)OC(C)C(=O)O[C@H](COc1nsnc1N1CCOCC1)CN(C(=O)C(C)OC(=O)C(C)OC(C)=O)C(C)(C)C (stereo partly shown) [Compound 230, Timolol-bis-N-acetyl-PLA(n=2)-O-acetyl PLA(n=4)]			> 50	< 0.007	
Timolol-Bis-Acetyl-PLA (n = 4) [Compound 119-1]					Solubility DMSO (Table 3B, DMSO): >50 mg/mL; Solubility Water [5]: <0.05 µg/mL
CCCCCCCCCCCCCCCCCC(=O)O[C@@H](C)C(=O)O[C@@H](C)C(=O)O[C@@H](C)C(=O)O[C@@H](C)C(=O)NS(=O)(=O)c1cc2c(s1)S(=O)(=O)N(CCCOC)CC2NCC (stereo partly drawn) [Compound 15-2, Octadecanoic acid (S)-1-[(S)-1-((S)-1-{(S)-2-[4-ethylamino-2-(3-methoxy-propyl)-1,1-dioxo-1,2,3,4-tetrahydro-1λ*6*-thieno[3,2-e][1,2]thiazine-6-sulfonylamino]-1-methyl-2-oxo-ethoxycarbonyl}-ethoxycarbonyl)-ethoxycarbonyl]-ethyl ester]	> 50	< 1			
N-acyl-Timolol-PLA (n = 2)-DHA [N-Acyl-Timolol-PLA (n = 2) DHA]					Solubility DMSO (Table 3B, DMSO): >100 mg/mL; Solubility Water [5]: <1000 µg/mL
CCCCCCCCCCCCCCCCCC(=O)O[C@@H](C)C(=O)O[C@@H](C)C(=O)O[C@@H](C)C(=O)O[C@@H](C)C(=O)NS(=O)(=O)c1cc2c(s1)S(=O)(=O)C(C)CC2NCC (stereo partly drawn) [Compound 12-3, Octadecanoic acid (S)-1-((S)-1-{(S)-1-[(S)-2-(4-ethylamino-6-methyl-7,7-dioxo-4,5,6,7-tetrahydro-7λ*6*-thieno[2,3-b]thiopyran-2-sulfonylamino)-1-methyl-2-oxo-ethoxycarbonyl]-ethoxycarbonyl}-ethoxycarbonyl)-ethyl ester]	> 50	< 0.1			solubility [6]: > 50 mg/mL
CCCCCCCCCCCCCCCCCC(=O)O[C@@H](C)C(=O)O[C@@H](C)C(=O)O[C@@H](C)C(=O)O[C@@H](C)C(=O)O[C@@H](C)C(=O)O[C@@H](C)C(=O)O[C@@H](CNC(C)(C)C)COc1nsnc1N1CCOCC1.Cl [Compound 43-1, Octadecanoic acid (5)-1-((S)-1-{(S)-1-[(S)-1-((S)-1-{(S)-1-[(S)-1-(tert-butylamino-methyl)-2-(4-morpholin-4-yl-[1,2,5]thiadiazol-3-yloxy)-ethoxycarbonyl]-ethoxycarbonyl}-ethoxycarbonyl)-ethoxycarbonyl]-ethoxycarbonyl}-ethoxycarbonyl)-ethyl ester hydrochloride]					Solubility DMSO (Table 3A, DMSO): >50 mg/mL; Solubility Water [7]: 6250 µg/mL; aqueous solubility (aqueous solution): 6.25 mg/mL
COc1cccc(CN(CCO)C(=O)Nc2ccc(-c3cn[nH]c3)cc2)c1 [SR5834, 1-(2-hydroxyethyl)-1-[(3-methoxyphenyl)methyl]-3-[4-(1H-pyrazol-4-yl)phenyl]urea, reference compound]			> 100	< 1	
CCN[C@H]1CN(CCCOC)S(=O)(=O)c2sc(S(N)(=O)=O)cc21 [Brinzolamide, reference compound]	> 50	< 1			Solubility DCM (Table 3B, DCM): <7.5 mg/mL; Solubility DMSO (Table 3B, DMSO): >50 mg/mL; Solubility Water [5]: <1000 µg/mL; solubility [6]: < 7.5 mg/mL
CCN[C@H]1C[C@H](C)S(=O)(=O)c2sc(S(=O)(=O)NC(=O)[C@H](C)O)cc21 [Dorzolamide-PLA (n = 1), dorzolamide-PLA (n=1)]					Solubility DMSO (Table 3A, DMSO): <1.0 mg/mL; Solubility Water [7]: >50000 µg/mL
CCCCCCCCCCCCCCCCCC(=O)O[C@@H](C)C(=O)O[C@@H](C)C(=O)O[C@@H](C)C(=O)O[C@@H](C)C(=O)O[C@@H](C)C(=O)O[C@@H](C)C(=O)O[C@@H](CNC(C)(C)C)COc1nsnc1N1CCOCC1 [Compound 42-2, Octadecanoic acid (S)-1-((S)-1-{(S)-1-[(S)-1-((S)-1-{(S)-1-[(S)-1-(tert-butylamino-methyl)-2-(4-morpholin-4-yl-[1,2,5]thiadiazol-3-yloxy)-ethoxycarbonyl]-ethoxycarbonyl}-ethoxycarbonyl)-ethoxycarbonyl]-ethoxycarbonyl}-ethoxycarbonyl)-ethyl ester maleate]	> 50	< 1			
Brinzolamide (n = 1)					Solubility DCM (Table 3B, DCM): >50 mg/mL; Solubility DMSO (Table 3B, DMSO): >50 mg/mL; Solubility Water [5]: >50000 µg/mL
CCCCC/C=C\C/C=C\CCCCCCCC(=O)O[C@@H](CNC(C)(C)C)COc1nsnc1N1CCOCC1.Cl [Compound 71-1, Timolol-O-Linoleic Acid-HCl]			> 50	> 25	
CC(=O)O[C@@H](C)C(=O)O[C@@H](C)C(=O)N1CCN=C1Nc1ccc2nccnc2c1Br [Compound 25-2, (S)-2-Acetoxy-propionic acid (S)-2-[2-(5-bromo-quinoxalin-6-ylamino)-4,5-dihydro-imidazol-1-yl]-1-methyl-2-oxo-ethyl ester]	> 50	< 1			
CC(C)(C)NC[C@@H](COc1nsnc1N1CCOCC1)OC(=O)/C=C/C(=O)O[C@@H](CNC(C)(C)C)COc1nsnc1N1CCOCC1.O=C(O)/C=C\C(=O)O.O=C(O)/C=C\C(=O)O [Compound 78-1, Timolol-fumurate-Timolol-maleate]			> 100	< 1	

Second part, led by results:

solubility [1] [mg/mL]	solubility [2] [mg/mL]	solubility [3] [mg/mL]	solubility [4] [mg/mL]	Compound	further results
		> 100	< 1	CCN(Cc1cccc(OC)c1)C(=O)Nc1ccc(-c2cn[nH]c2)cc1OCCN1CCCC1 [RKI-1y, 3-(4-(1H-pyrazol-4-yl)-2-(2-(pyrrolidin-1-yl)ethoxy)phenyl)-1-ethyl-1-(3-methoxybenzyl)urea, reference compound]	
		> 100	< 1	CC/C=C\C/C=C\C/C=C\C/C=C\C/C=C\C/C=C\CCC(=O)O[C@H](COc1nsnc1N1CCOCC1)CN(C(C)=O)C(C)(C)C [Compound 68-1, N-Acyl-Timolol-DHA]	
> 50	< 0.1			CC(=O)O[C@@H](C)C(=O)O[C@@H](C)C(=O)O[C@@H](C)C(=O)O[C@@H](C)C(=O)O[C@@H](C)C(=O)O[C@@H](C)C(=O)O[C@@H](C)C(=O)O[C@@H](C)C(=O)N1CCN=C1Nc1ccc2nccnc2c1Br [Compound 109-1, Brimonidine-acetyl PLA(n=8)]	
		> 100	< 1	COc1cccc(CN(CCO)C(=O)Nc2ccc(-c3cn[nH]c3)cc2OCCN2CCCC2)c1 [RKI-H-1y, 1-(2-hydroxyethyl)-1-[(3-methoxyphenyl)methyl]-3-[4-(1H-pyrazol-4-yl)-2-[2-(pyrrolidin-1-yl)ethoxy]phenyl]urea, reference compound]	
		> 100	< 1	CC/C=C\C/C=C\C/C=C\C/C=C\C/C=C\C/C=C\CCC(=O)O[C@@H](CNC(C)(C)C)COc1nsnc1N1CCOCC1.O=C(O)/C=C\C(=O)O [Compound 53-3, (4Z,7Z,10Z,13Z,16Z,19Z)-Docosa-4,7,10,13,16,19-hexaenoic acid (S)-1-(tert-butylamino-methyl)-2-(4-morpholin-4-yl-[1,2,5]thiadiazol-3-yloxy)-ethylester maleate]	
		> 100	< 1	CC/C=C\C/C=C\C/C=C\C/C=C\C/C=C\C/C=C\CCC(=O)NS(=O)(=O)c1cc2c(s1)S(=O)(=O)[C@@H](C)C[C@@H]2NCC [Compound 80-3, (4S,6S)-4-Ethylamino-6-methyl-7,7-dioxo-4,5,6,7-tetrahydro-7lambda*6*-thieno[2,3-b]thiopyran-2-sulfonic acid ((4Z,7Z,10Z,13Z,16Z,19Z)-docosa-4,7,10,13,16,19-hexanoyl)-amide]	solubility (organic solvent or mixture, Table 3B, DCM, read-out: Solubility DCM): > 50 mg/mL
		> 50	< 0.006	CC(=O)OC(C)C(=O)OC(C)C(=O)OC(C)C(=O)OC(C)C(=O)N(C[C@@H](COc1nsnc1N1CCOCC1)OC(=O)C(C)OC(=O)C(C)OC(C)=O)C(C)(C)C (stereo partly shown) [Compound 229, Timolol-bis-N-acetyl-PLA(n=4)-O-acetyl PLA(n=2)]	
		> 100	< 1	CC(C)(C)NC[C@@H](COc1nsnc1N1CCOCC1)OC(=O)CCCCCCCCC(=O)O[C@@H](CNC(C)(C)C)COc1nsnc1N1CCOCC1.O=C(O)/C=C\C(=O)O [Compound 75-1, Timolol-Sebacic Acid-Timolol Maleate]	
> 50	< 1			CC(=O)O[C@@H](CNC(C)(C)C)COc1nsnc1N1CCOCC1.O=C(O)/C=C\C(=O)O [Compound 35-4, Acetic acid (S)-1-(tert-butylamino-methyl)-2-(4-morpholin-4-yl-[1,2,5]thiadiazol-3-yloxy)-ethyl ester maleate]	
> 50	< 1			CC(=O)N(C[C@@H](COc1nsnc1N1CCOCC1)OC(=O)OC(C)(C)C)C(C)(C)C [Compound 37-2, Timolol-O-Boc-N-acetate]	
100 (≈ 150 mM)	< 0.2			CC(=O)OC(C)C(=O)OC(C)C(=O)OC(C)C(=O)OC(C)C(=O)N1CCN(C(C)=O)C1=Nc1ccc2nccnc2c1Br (stereo not shown) [Compound 115-1, Brimonidine-acetyl PLA(n=4)-N-Acetate]	
		> 50		COc1cccc(CN(CCOC(=O)[C@H](C)OC(=O)[C@H](C)OC(=O)[C@H](C)OC(=O)[C@H](C)OC(C)=O)C(=O)Nc2ccc(-c3cn[nH]c3)cc2)c1 [Compound 88-3, SR5834-acetyl PLA(n=4)]	
